Results as given in the supplement of paper PMC13380429.
± gives the standard deviation of the averaged measurements.

How the values were obtained:
Details in all cases: 72 h
Caco-2 [1] = experiment: cell viability relative to DMSO; higher = less toxic
Calu-3 [2] = experiment: as above
HepG2 [3] = experiment: as above
U2OS [4] = experiment: as above
Vero E6 [5] = experiment: as above
Caco-2 [6] = experiment: relative viability EC50 (midpoint between 100% and the lowest measured viability); higher = less toxic
Calu-3 [7] = experiment: as above
HepG2 [8] = experiment: as above
U2OS [9] = experiment: as above
Vero E6 [10] = experiment: as above
Caco-2 [11] = experiment: drug sensitivity score (DSS) for viability; higher = more toxic; extreme values may be limits of the assay
Calu-3 [12] = experiment: as above
HepG2 [13] = experiment: as above
U2OS [14] = experiment: as above
Vero E6 [15] = experiment: as above

| SMILES | cell viability (Caco-2 [1]; 1 nM) | cell viability (Caco-2 [1]; 10 nM) | cell viability (Caco-2 [1]; 100 nM) | cell viability (Caco-2 [1]; 1000 nM) | cell viability (Caco-2 [1]; 10000 nM) | cell viability (Calu-3 [2]; 1 nM) | cell viability (Calu-3 [2]; 10 nM) | cell viability (Calu-3 [2]; 100 nM) | cell viability (Calu-3 [2]; 1000 nM) | cell viability (Calu-3 [2]; 10000 nM) | cell viability (HepG2 [3]; 1 nM) | cell viability (HepG2 [3]; 10 nM) | cell viability (HepG2 [3]; 100 nM) | cell viability (HepG2 [3]; 1000 nM) | cell viability (HepG2 [3]; 10000 nM) | cell viability (U2OS [4]; 1 nM) | cell viability (U2OS [4]; 10 nM) | cell viability (U2OS [4]; 100 nM) | cell viability (U2OS [4]; 1000 nM) | cell viability (U2OS [4]; 10000 nM) | cell viability (Vero E6 [5]; 1 nM) | cell viability (Vero E6 [5]; 10 nM) | cell viability (Vero E6 [5]; 100 nM) | cell viability (Vero E6 [5]; 1000 nM) | cell viability (Vero E6 [5]; 10000 nM) | relative viability EC50 (Caco-2 [6]) | relative viability EC50 (Calu-3 [7]) | relative viability EC50 (HepG2 [8]) | relative viability EC50 (U2OS [9]) | relative viability EC50 (Vero E6 [10]) | drug sensitivity score (Caco-2 [11]) | drug sensitivity score (Calu-3 [12]) | drug sensitivity score (HepG2 [13]) | drug sensitivity score (U2OS [14]) | drug sensitivity score (Vero E6 [15]) |
| --- | --- | --- | --- | --- | --- | --- | --- | --- | --- | --- | --- | --- | --- | --- | --- | --- | --- | --- | --- | --- | --- | --- | --- | --- | --- | --- | --- | --- | --- | --- | --- | --- | --- | --- | --- |
| CCCCC(=O)OCC(=O)[C@]1(O)Cc2c(O)c3c(c(O)c2[C@@H](O[C@H]2C[C@H](NC(=O)C(F)(F)F)[C@H](O)[C@H](C)O2)C1)C(=O)c1c(OC)cccc1C3=O [valrubicin] | 95.9% | 96.8% | 92.5% | 72.3% | 23.3% | 90.7% | 95.4% | 89.7% | 60.9% | 26.7% | 95.7% | 101% | 77.9% | 33.6% | 0.6% | 105% | 96.7% | 103% | 70.3% | 6.1% | 98.6% | 102% | 107% | 92.3% | 29.2% | 1.36 µM | 0.769 µM | 0.43 µM | 1.36 µM | 2.28 µM | 7.5 | 9 | 15.2 | 9.5 | 5.2 |
| Nc1ccc(C(=O)O)c(O)c1 [aminosalicylate] | 95.7% | 115% | 105% | 116% | 104% | 96.5% | 101% | 107% | 98.9% | 99.3% | 92.6% | 102% | 99.7% | 81.1% | 102% | 92.5% | 101% | 96.4% | 104% | 93.8% | 95.5% | 98.5% | 104% | 104% | 95.3% | > 10 µM | > 10 µM | > 10 µM | > 10 µM | > 10 µM | 0 | 0 | 0 | 0 | 0 |
| C[C@@H](O)[C@H]1C(=O)N2C(C(=O)O)=C(SCCNC=N)C[C@H]12 [imipenem] | 97.2% | 98.4% | 98.2% | 92.6% | 106% | 88% | 87.6% | 107% | 86.3% | 93.4% | 98.7% | 98.5% | 96.2% | 100% | 107% | 99.1% | 98.2% | 102% | 97.4% | 97.2% | 97.9% | 102% | 89.2% | 100% | 110% | > 10 µM | > 10 µM | > 10 µM | > 10 µM | > 10 µM | 0 | 0 | 0 | 0 | 0 |
| C[C@@H](O)[C@H]1C(=O)N2C(C(=O)O)=C([C@H]3CCCO3)S[C@H]12 [faropenem] | 95% | 91% | 101% | 100% | 95% | 106% | 96.5% | 99.6% | 98% | 105% | 103% | 99.4% | 104% | 103% | 98.7% | 101% | 101% | 94.6% | 96.6% | 98.8% | 97.2% | 99.5% | 102% | 96.8% | 97.1% | > 10 µM | > 10 µM | > 10 µM | > 10 µM | > 10 µM | 0 | 0 | 0 | 0 | 0 |
| CN(C)CC(c1ccc(O)cc1)C1(O)CCCCC1 (stereo not drawn) [desvenlafaxine] | 105% | 102% | 99.6% | 98.2% | 99.2% | 98.8% | 110% | 97.3% | 109% | 98.7% | – | – | – | – | – | 99.1% | 99.7% | 96.5% | 97.5% | 94.2% | 101% | 97.2% | 97.5% | 92.6% | 94.3% | > 10 µM | > 10 µM | – | > 10 µM | > 10 µM | 0 | 0 | – | 0 | 0 |
| C[C@H]1c2cccc(O)c2C(=O)C2=C(O)[C@]3(O)C(=O)C(C(N)=O)=C(O)[C@@H](N(C)C)[C@@H]3[C@@H](O)[C@@H]21 [doxycycline] | 90.2 ± 11% | 96.8 ± 0.85% | 92.6 ± 3.1% | 90.1 ± 5.4% | 88 ± 0.92% | 95.8 ± 5.4% | 108 ± 3.1% | 107 ± 3.3% | 104 ± 2.9% | 99.8 ± 8% | 100 ± 2.8% | 94.3 ± 5.3% | 98.7 ± 9.5% | 108 ± 21% | 94.8 ± 4.3% | 96.5 ± 1.9% | 98.8 ± 1.1% | 96.2 ± 2% | 101 ± 2.3% | 98.6 ± 4% | 101 ± 2.9% | 95.8 ± 4.3% | 101 ± 4.5% | 97.8 ± 9.4% | 100 ± 1.8% | > 10 µM | > 10 µM | > 10 µM | > 10 µM | > 10 µM | 0.05 ± 0.071 | 0 | 0 | 0 | 0 |
